{"source": "paper PMC4122359", "about": "“Conformational Dynamics of Escherichia coli Flavodoxins in Apo- and Holo-States by Solution NMR Spectroscopy” (PLoS ONE, 2014)", "key": {"[1]": {"target": "T1, FldA (Escherichia coli, UniProt P61949)", "T1 construct": "monomer; long-chain flavodoxin", "T1 sequence (P61949 1-176)": "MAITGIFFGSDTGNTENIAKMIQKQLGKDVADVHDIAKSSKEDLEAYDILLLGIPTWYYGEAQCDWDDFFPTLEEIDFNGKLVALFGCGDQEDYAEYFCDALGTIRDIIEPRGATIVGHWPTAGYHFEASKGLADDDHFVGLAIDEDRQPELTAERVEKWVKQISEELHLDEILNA", "assay": "solution NMR structure of holo-form; […] HSQC titration", "type": "binding", "details": "oxidized FMN, non-covalent; pH 7.0, 30 mM sodium phosphate, 30 mM NaCl, 25 °C"}, "[2]": {"target": "T2, YqcA (Escherichia coli, UniProt P65367)", "T2 construct": "monomer; short-chain flavodoxin", "T2 sequence (P65367 whole entry)": "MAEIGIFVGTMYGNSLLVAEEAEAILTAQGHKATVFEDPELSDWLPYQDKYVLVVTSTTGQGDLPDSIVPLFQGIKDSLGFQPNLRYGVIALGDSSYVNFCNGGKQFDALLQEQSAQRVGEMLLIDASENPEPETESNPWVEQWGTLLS", "assay": "solution NMR structure of holo-form; […] HSQC titration", "type": "binding", "details": "oxidized FMN, non-covalent; slow exchange; pH 7.0, 30 mM sodium phosphate, 30 mM NaCl, 25 °C"}}}
{"smiles": "Cc1cc2nc3c(=O)[nH]c(=O)nc-3n(C[C@H](O)[C@H](O)[C@H](O)COP(=O)(O)O)c2cc1C", "note": "[FMN]", "values": [{"measurement": "solution NMR structure of holo-form; 15N HSQC titration", "setting": "[1]", "value": "FMN titration experiments were performed with FldA"}, {"measurement": "solution NMR structure of holo-form; 15N HSQC titration", "setting": "[2]", "value": "These results demonstrate that YqcA binds FMN with high affinity"}]}
